In publication PMC8769378, “Underlining the Importance of Peripheral Protic Functional Groups to Enhance the Proton Exchange of Gd-Based MRI Contrast Agents” (Inorganic Chemistry, 2021):
Several values for one entry are separate records, joined by “and”; a condition that tells them apart may be missing. Equal values may be shown once.

Assay: Analysis of 1/T1 ^1H NMRD profiles
Type: physicochemical
Method: The relaxometric characterization of the Gd complexes was carried out by recording their ^1H nuclear magnetic relaxation dispersion (NMRD) profiles at 283, 298, and 310 K in the proton Larmor frequency range 0.01–120 MHz, corresponding to magnetic field strengths varying between 2.34 × 10^–4 and 3 T (Figure 2). The shape of the NMRD profiles and their temperature dependence (r1 decreases with increasing temperature) reflect the general behavior of small Gd^III complexes, characterized by a constant r1 value at low fields, a dispersion around 4–6 MHz, and another region at high fields (>20 MHz) where r1 slightly decreases. […] A least-squares fit of the profiles was carried out in terms of the established theory of paramagnetic relaxation expressed by the Solomon–Bloembergen–Morgan[30],[31] and Freed’s[32] equations for the innersphere (IS) and outersphere (OS) proton relaxation mechanisms, respectively (Table 3). Because of the large number of parameters involved in the fitting procedure, some of them were fixed to known or reasonable values: The hydration number q was fixed to 1, and the distance between Gd^III and the protons of the bound water molecule, r, was fixed to 3.0 Å; the distance of closest approach, a, of the outersphere water molecules to Gd^III was set to 4.0 Å, and for the relative diffusion coefficient D, standard values of 1.7, 2.24, and 3.1 × 10^–5 cm^2 s^–1 (283, 298, and 310 K) were used. […] The difference in relaxivity between GdL1 and GdL2 cannot account for the difference in τR since their molecular weight is very similar; therefore, we considered that the pendant propionate moiety of GdL2 allows for the presence of second sphere (SS) water molecules in H-bonding interaction with the carboxylate group at a distance from Gd^III sufficiently short (<4 Å) and with a residence time sufficiently long to be affected by the rotation. […] Therefore, we analyzed the NMRD profiles for GdL2 also considering the SS contribution, expressed in terms of two additional parameters: the number qSS of second sphere water molecules and their rotational correlation time, τR(SS). The average distance from the paramagnetic center was arbitrarily fixed at 3.5 Å, an intermediate value between those of water molecules in the inner (3.0 Å) and outer (4.0 Å) solvation shell.[33] In addition, since GdL1 and GdL2 are structurally related to the recently reported GdHPADO3A-like complexes having a carbonyl group in place of the methyl group present in GdHPDO3A, τM was fixed to that reported for GdHPADO3A at pH 7 (20 ns).[7] The electronic and reorientation parameters reported in Table 3 for GdL1 and GdL2 are in good agreement with those of other GdHPDO3A-like complexes. Finally, considering the contribution of two second sphere water molecules characterized by a rotational correlation time τR(SS) of 30 ps, the contribution of the SS molecules to the relaxivity of GdL2 is about 0.3 mM^–1 s^–1 at 20 MHz and 298 K almost equal to the Δr1 between GdL1 and GdL2.
Proton relaxation measurements (1/T1) and the resulting 1/T1 NMRD profiles were measured on a fast-field cycling (FFC) Stelar SmarTracer relaxometer over a continuum of magnetic field strengths from 0.000 24 to 0.25 T (corresponding to 0.01–10 MHz proton Larmor frequencies). The relaxometer operates under computer control with an absolute uncertainty in 1/T1 of ±1%. […] Furthermore, the real temperature inside the probe head was additionally monitored by a Fluke 52 k/j digital thermometer (Fluke, Zürich, Switzerland). The gadolinium concentration was determined by measuring the bulk magnetic susceptibility shifts of the t-BuOH ^1H NMR signal. Additional data in the 20–120 MHz frequency range were obtained with a high field relaxometer (Stelar) equipped with the HTS-110 3T metrology cryogen-free superconducting magnet. […] The pH-dependent relaxivity measurements of GdL1 and GdL2 complexes were carried out by direct titration of the samples (GdL2, 3.0 < pH < 12.5; GdL1, 4 < pH < 10). […]

For `O=C([O-])CN1CCN(CC(=O)[O-])CCN(CC(O)C(=O)O)CCN(CC(=O)[O-])CC1.[Gd+3]` (stereo not shown) [GdL2], the “contribution of the second sphere (SS) water molecules to the relaxivity” value (20 MHz, 298 K, qSS = 2, τR(SS) 30 ps) was “about 0.3 mM^–1 s^–1”, the “^298r1-60-MHz” value (298 K, 60 MHz, pH 7.4) was 4.6 ± 0.1 mM^–1 s^–1 and the “^310r1-60-MHz” value (310 K, 60 MHz, pH 7.4) was 3.6 ± 0.1 mM^–1 s^–1. For the same compound, the “Δ^2” value (NMRD fit) was 8.5 ± 0.2 10^19 s^–2, the τv (NMRD fit) was 13.7 ± 0.5 ps and the τR (NMRD fit, q = 1) was 68 ± 2 ps. For the same compound, the “τR(SS)” value (determined for qSS = 2 and rSF = 3.5 Å) was 30 ps and 30 ± 2 ps.
